In paper PMC10792220 (Journal of Applied Glycoscience, 2023) one finds activity and stoichiometry N data, which are given here for 2 compounds.

One assay has as its target T1, AxyC (Aspergillus oryzae, UniProt A0ABQ6KV83).
T1 sequence (A0ABQ6KV83 1-654): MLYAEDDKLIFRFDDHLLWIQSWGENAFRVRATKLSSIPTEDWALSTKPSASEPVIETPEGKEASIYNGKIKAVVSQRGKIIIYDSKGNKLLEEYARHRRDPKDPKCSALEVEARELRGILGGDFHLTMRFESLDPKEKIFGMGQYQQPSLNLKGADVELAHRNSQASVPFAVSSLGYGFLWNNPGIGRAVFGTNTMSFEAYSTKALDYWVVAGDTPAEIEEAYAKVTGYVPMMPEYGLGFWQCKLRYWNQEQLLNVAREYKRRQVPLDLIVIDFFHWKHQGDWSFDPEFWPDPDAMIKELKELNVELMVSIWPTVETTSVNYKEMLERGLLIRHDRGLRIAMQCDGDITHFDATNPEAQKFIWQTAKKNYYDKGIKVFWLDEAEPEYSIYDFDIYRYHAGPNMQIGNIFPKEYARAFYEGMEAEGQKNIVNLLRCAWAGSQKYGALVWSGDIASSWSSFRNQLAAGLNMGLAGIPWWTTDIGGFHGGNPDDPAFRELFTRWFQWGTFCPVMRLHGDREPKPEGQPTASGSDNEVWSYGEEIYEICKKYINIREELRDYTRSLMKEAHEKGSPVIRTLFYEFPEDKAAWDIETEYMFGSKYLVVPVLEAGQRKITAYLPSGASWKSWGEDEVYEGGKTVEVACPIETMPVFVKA
The assay is described as follows: absorbance of released p-nitrophenol at […] nm. As to conditions: read-out: Relative activity (%) at 40 mM. In kind it is biochemical.

Assay [1] concerns the target Aspergillus oryzae α-xylosidase AxyC, His6-tagged (Aspergillus oryzae). The assay can be described thus: SEC.

Turning to `OC1OC[C@@H](O)[C@H](O)[C@H]1O` (stereo partly drawn) [D-xylose], the activity at 40000 µM on AxyC was 84.8 ± 4.5%. As to “Aspergillus oryzae α-xylosidase AxyC, His6-tagged (enzyme)”, in assay [1], the stoichiometry N is 4.
